Eleven compounds from patent publication US20240101568A1, “NOVEL BENZAZEPINE SPIRO DERIVATIVE” (SHANGHAI JEMINCARE PHARMACEUTICAL CO., LTD, priority 2020, published 2024) can be followed below.

Like-named read-outs stand apart in the source and are kept apart here.

Series [1] has as its target T1, human vasopressin receptor V2R (Homo sapiens, UniProt P30518).
T1 construct: host or cells: HeLa (lentivirus infection, puromycin selection)
Kind of series: IC50 assay for inhibition of vasopressin-induced V2R activation (cAMP increase, HTRF) in HeLa-V2R cells. It counts as cell-based. The text has this: Experimental Example 1: IC50 Assay for Inhibition of Vasopressin-Induced Vasopressin Receptor V2R Activation by Compounds
Hela cell line stably expressing the human vasopressin receptor V2R (HeLa-V2R): it was constructed by Shanghai Jikai Gene Chemical Technology Co. Ltd. using lentivirus infection method and stably expressed human V2R as verified by qPCR.
DMEM cell culture medium: brand: Gibco, code: 11995065; fetal bovine serum: brand: Jitai, article No: FND500; 0.25% Trypsin: brand: Cibco, code: 25200072; Puromycin Dihydrochloride: brand: Gibco, code: A1113803; cAMP-GS HIRANGE KIT: brand: Cisbio, code: 62AM6PEC; IBMX: brand: Sigma, code: i5879; vasopressin AVP: Ji'er Biochemical (Shanghai) Co. Ltd.
Hela-V2R cells were cultured in a DMEM medium supplemented with 10% fetal bovine serum at 37° C. with 5% CO2 and continuously selected for V2R-expressing cells by adding 2 μg/mL puromycin. On the day of the experiment, cells were trypsinized, washed twice with stimulation buffer from the cAMP-GS HIRANGE kit, resuspended, and counted to 1.6×10^6 cells/ml, and IBMX was added to a final concentration of 0.5 mM. 5 μL of cell suspension/well was transferred to a 384-well plate and 2.5 μL of test compound or DMSO (minimum Min, maximum Max control) was added at various concentrations (10 μM in a 3-fold dilution, 10 concentration gradients) to the corresponding wells. After 30 minutes of incubation at room temperature, 2.5 μL vasopressin AVP solution was added to a final concentration of 2.25 nM to the test compound wells and 2.5 μL stimulation buffer to the minimum wells and incubated for 60 minutes at 25 C. Simultaneously cAMP standard sample (3-fold dilution from 5.6 μM, 10 concentration points) was prepared, and 10 μL of cAMP standard sample was transferred to corresponding well of a 384-well plate. The cAMP-d2 fluorescence and anti-cAMP antibody probes provided in the kit were diluted 20-fold with lysis buffer in the cAMP-GS HIRANGE kit, 5 μL of each was taken and added into each well of the 384-well plate in turn, mixed well with simple centrifugation performed, and incubated at 25° C. for 2 hours and then detect. Sample detection: fluorescence intensity was measured at 615 nm and 665 nm using the HTRF method in the Envision plate reader. Two duplicate wells were made for each sample to be tested, and 32 duplicate wells were made for Min and Max respectively.
The fluorescence intensity ratio FI665/615 at the wavelengths of 665 nm and 615 nm was calculated for each well sample. The standard curve was obtained by fitting the “log(inhibitor) vs response−variable slope (four parameters)” model in Prism 8.0 software with the logarithm of standard concentration as X and FI665/615X1000 as Y value. With the test well F1665/615X1000 as a Y value, the cAMP concentration corresponding to each sample was calculated according to the above standard curve in Prism 8.0 software.
The % Inhibition (inhibition percentage) was calculated as follows:
% inhibition=(Cmax−Ccmpd)/(Cmax−Cmm)×100
Where Cmax is the average calculated cAMP concentration in all maximum wells; Cmm is the average calculated cAMP concentration in all […]; Ccmpd is the calculated cAMP concentration of the test compound.
IC50s were calculated by non-linear regression using the “log(inhibitor) vs response−variable slope (four parameters)” model in Prism 8.0 software with % Inhibition (inhibition percentage) as Y value and log value of compound concentration as X, where Y=Bottom+(Top−Bottom)/(1+10^((Log IC50−X)*Hill Slope)).

The nature of series [2]: in vivo. Also on record: species or system mice. As to the method:
Experimental Example 2: In Vivo Pharmacokinetic Experiments with Compounds of the Disclosure
This study evaluated in vivo pharmacokinetics in mice by intravenous and oral administration.
Experimental methods and conditions: male CD1 mice, aged 6-8 weeks, had free access to drinking water and were given a single intravenous injection of test compound 1 mg/Kg (vehicle 5% DMSO/10% Solutol/85% Saline), 5 min, 15 min, 30 min, 1 hr, 2 hr, 4 hr, 8 hr, 24 hr or oral gavage administration of 10 mg/kg (vehicle 5% DMSO/10% Solutol/85% Saline) after administration. Orbital blood was collected at 15 min, 30 min, 1 hr, 2 hr, 4 hr, 6 hr, 8 hr, and 24 hr after administration. No less than 50 μL of each sample was collected. Heparin sodium was used for anticoagulation. After collection, the sample was placed on ice, and the plasma was separated and tested within 1 hour. Plasma concentrations were determined by liquid-phase tandem mass spectrometry (LC/MS/MS). Pharmacokinetic parameters were calculated using Phoenix WinNonlin software. The results are shown in Tables 2 and 3 with Tofapriptan as control 1.

Series [3] deals with LLC-PK1 cells. Put plainly: Compound proliferation inhibition assay on LLC-PK1 cells (vasopressin-induced proliferation). The format is cell-based, Porcine. The following applies: AVP 10 nM, verapamil 5 μM, 48 hr, FIG. 1. The source says: Experimental Example 3: Compound Proliferation Inhibition Assay on LLC-PK1 Cells
(1) Cell • Porcine kidney epithelial cells LLC-PK1: purchased from ATCC, Cat #CL-101
(2) Reagents: • Medium 199, Gibco (Cat #11150059) • Fetal Bovine Serum (FBS), Australia, Jitai (Cat #FND500) • Trypsin-EDTA (0.25%), phenol red, Gibco (Cat #25200072) • PBS, pH 7.4, Gibco (Cat #10010031) • DMSO (Dimethyl Sulfoxide), Sigma (Cat #D8418) • Poly-D-lysine, Gibco (Cat #A3890401) • Vasopressin AVP: Ji'er Biochemical Co. Ltd. Customization • Verapamil hydrochloride, MCE (Cat #HY-A0064) • AlamarBlue™ HS Cell Viability Reagent, Invitrogen (Cat #A50100) […]
LLC-PK1 cells were cultured in M199 medium supplemented with 10% fetal bovine serum at 37° C. with 5% CO2. […] LLC-PK1 cells were trypsinized, resuspended in serum-free M199 after centrifugation, counted, diluted to a cell suspension of 1×10^5/mL in serum-free M199 culture medium, and FBS was added to a final concentration of 1%. […] On the fifth day, the culture solution was carefully suctioned away, the cells were washed once with 200 μL PBS, 90 μL of M199 serum-free culture solution was carefully added, then 10 μL Alamarblue reagent was added, and the mixture was centrifuged at 300 rpm for 1 min, incubated at 37° C. for 2 h, and then detected. […]
Data quality control: S/B, i.e., Max well average/Min well average, is calculated and […] is considered QC pass.

The mark [4] stands for this setting: Human V2R Hela-Stable cell line OE2, AVP 2.25 nM, read-out: IC50 (nM), inhibition of the cAMP increase.

T1 sequence (P30518 whole entry): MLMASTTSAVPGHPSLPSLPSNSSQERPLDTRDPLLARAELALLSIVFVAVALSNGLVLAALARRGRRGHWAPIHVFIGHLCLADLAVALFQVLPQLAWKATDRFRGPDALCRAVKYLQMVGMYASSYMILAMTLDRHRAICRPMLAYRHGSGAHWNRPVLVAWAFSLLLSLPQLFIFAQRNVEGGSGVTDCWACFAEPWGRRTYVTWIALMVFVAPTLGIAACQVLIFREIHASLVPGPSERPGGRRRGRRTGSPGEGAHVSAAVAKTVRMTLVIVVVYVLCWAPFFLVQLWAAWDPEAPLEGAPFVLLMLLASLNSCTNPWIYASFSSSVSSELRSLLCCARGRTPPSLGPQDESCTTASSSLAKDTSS

A word on the IC50: it is the concentration that gives 50% inhibition. For orientation: clearance means the volume of plasma or blood freed of the substance per unit of time. Higher therefore signals efficient removal. As usually defined, the half-life is the time in which the quantity being followed falls by half. A higher half-life goes with slow loss. The Cmax is the highest concentration seen after dosing. As usually defined, the bioavailability is the share of a dose that reaches the circulation, judged against a reference dose that is usually intravenous. The low end stands for poor availability, the high end for good availability. Compound `O=C(Nc1ccc(C(=O)N2CCC(F)(F)C3(CN3)c3cc(Cl)ccc32)cn1)c1ccccc1C(F)(F)F` (centres unmarked) [Compound 1] came in with an IC50 in series [1] of 10.9 nM. In series [2] (male, CD1, mouse, iv, 1 mg/kg), the AUC0-inf turned out to be 719 ng·h/mL, the clearance came to 23.2 mL/min/kg and the half-life is 55.2 min. In series [2] (male, CD1, mouse, po, 10 mg/kg), the AUC0-inf turned out to be 4060 ng·h/mL, the Cmax came out at 1260 ng/mL, the bioavailability worked out at 56% and the half-life is 36 min. Further, the “inhibitory effect on the proliferation of LLC-PK1 cells” value in series [3] (compared with control 1) is listed as “stronger than that of control 1”. For the same compound, in series [3], the “pro-proliferation effect on LLC-PK1 cells” value is “no pro-proliferation effect”.
`Cc1ccccc1C(=O)Nc1ccc(C(=O)N2CCC(F)(F)C3(CN3)c3cc(Cl)ccc32)c(C)c1` (centres unmarked) [Compound 2]: in series [1] (setting [4]), the IC50 was 9.35 nM.
As for `Cc1ccccc1C(=O)Nc1ccc(C(=O)N2CCCC3(CN3)c3cc(Cl)ccc32)cn1` (centres unmarked) [Compound 4], the IC50 in series [1] (setting [4]) turned out to be 3.14 nM.
Turning to `O=C(Nc1ccc(C(=O)N2CCCC3(CN3)c3cc(Cl)ccc32)cn1)c1ccccc1C(F)(F)F` (centres unmarked) [Compound 5], the IC50 in series [1] (setting [4]) was found to be 4.67 nM.
As for `Cc1cc(NC(=O)c2ccccc2Cl)ccc1C(=O)N1CCCC2(CN2)c2cc(Cl)ccc21` (centres unmarked) [Compound 8], in series [1] (setting [4]), the IC50 was 5.01 nM.
As to `Cc1ccccc1C(=O)Nc1ccc(C(=O)N2CCCC3(CN3)c3cc(Cl)ccc32)c(C)c1` (centres unmarked) [Compound 9], the IC50 in series [1] (setting [4]) was determined as 4.88 nM.
In the case of `Cc1ccccc1C(=O)Nc1ccc(C(=O)N2CCCC3(CC3)c3cc(Cl)ccc32)c(C)c1` [Compound 16], the IC50 in series [1] (setting [4]) stood at 11.2 nM.
Still for that read-out and setting: for `Cc1ccccc1C(=O)Nc1ccc(C(=O)N2CCCC3(CCC3)c3cc(Cl)ccc32)c(C)c1` [Compound 17] the value was 10.4 nM; for `Cc1ccccc1C(=O)Nc1ccc(C(=O)N2CCC(F)(F)C3(CN3)c3cc(Cl)ccc32)cn1` (centres unmarked) [Compound 20], 5.54 nM.
For the compound `O=C(Nc1ccc(C(=O)N2CCC(F)(F)C3(CN3)c3cc(Cl)ccc32)cn1)c1ccccc1Cl` (centres unmarked) [Compound 21], in series [1] (setting [4]), the 50% inhibitory concentration (IC50) amounted to 4.51 nM.
For the compound `Cc1ccccc1C(=O)Nc1ccc(C(=O)N2CCCC(O)c3cc(Cl)ccc32)c(C)c1` (centres unmarked) [Control 1, Tofapriptan, reference compound], in series [2] (mouse, iv, 1 mg/kg), the “AUC0-inf” value is 367 ng·h/mL, the “Cl” value was 45.5 mL/min/kg and the “T1/2” value is 31.8 min. In addition, in series [2] (mouse, po, 10 mg/kg), the “AUC0-inf” value amounted to 1613 ng·h/mL, the “Cmax” value amounted to 1307 ng/mL, the “F (%)” value is listed as 44% and the “T1/2” value is 94.8 min.
